Measured values: patent US9974759B2, “Beta 2 adrenoceptor antagonists for treating orthostatic hypotension” (Indiana University Research & Technology Corporation, priority 2013, dated 2018)
Entries after “also recorded” stand apart in the source; their conditions may differ.

Legend:
left stellate ganglion = test: Ambulatory recording of stellate ganglion nerve activity (SGNA); conditions: carvedilol 12 mg twice daily for a week or ICI infusion 7 days; immediately before drug 209.40
Protocol: (§1) Eight mongrel dogs (4 male, weighing 20-30 kg) were used in this Example. Left thoracotomy was performed through the first intercostal space for the implantation of a D70-CCTP radiotransmitter manufactured by the Data Sciences International (DSI, St Paul, Minn.). The first pair of bipolar electrodes was inserted beneath the nerve sheath of the left stellate ganglion. A second pair of bipolar leads was attached to the left thoracic vagal nerve at a level of 4 to 5 cm above the aortic arch. The third lead, a catheter with a pressure sensor, was inserted directly into the subclavian artery for blood pressure (BP) recording. The transmitter and ground wires were inserted into a subcutaneous pocket.
(§2) After 2 weeks of recovery, the radiotransmitter was turned on to record nerve signals and BP at baseline. The pre-implantation BP was calibrated against the ambient pressure in the vivarium. […]
(§3) The nerve activities were integrated minute-by-minute. […] The mean BP was also analyzed minute-by-minute during the same period. […] Pearson correlation coefficients between these two nerve activities were calculated. […]
(§4) To determine the relationship between BP, heart rate (HR) and ANS activities, 1-minute and 4-hour averages for each dog were calculated on each day of data collection starting at midnight. Pearson correlation coefficients between SGNA and VNA were also calculated within each 4-hour interval. […]

mongrel dogs = test: Ambulatory monitoring of blood pressure in dogs (radiotransmitter, Protocol 1); conditions: for BP response following simultaneous termination of sympathovagal firing and postural change: FIGS. 5A-5I, example dog, baseline drop from 110 mmHg to 80 mmHg; for BP: all eight dogs, random effects model, oral carvedilol 12 mg twice daily for a week, or 7 days of ICI infusion (3.1 μg/kg/hr), baseline 125.60; for percentage of hypotensive episodes (mean systolic pressure <100 mmHg in one min): minute-by-minute data, all dogs, baseline 7.1%
Protocol: as §1
After 2 weeks of recovery, the radiotransmitter was turned on to record nerve signals and BP at baseline. The pre-implantation BP was calibrated against the ambient pressure in the vivarium. There was a 12-hour daylight cycle in the vivarium staring at 7 AM each day. After the baseline (stellate ganglion nerve activity (SGNA), vagal nerve activity (VNA), and BP) recordings, the dogs were given oral carvedilol, 12 mg twice daily for a week. The drugs were then washed out for a week and baseline recordings were re-collected. […] The pump is designed to empty its contents over 7 days at a rate of 10 μl/hr. Therefore, the infusion rate was 3.1 μg/kg/hr for a 30 kg dog. […] The data collected at days 6-7 of the infusion were used for analyses.
The nerve activities were integrated minute-by-minute. Because BP recordings are prone to motion artifacts, the data of all dogs included in Protocol 1 was manually reviewed and the first 10 noise-free minutes of each hour were selected for analyses. The mean BP was also analyzed minute-by-minute during the same period. The SGNA was plotted against the VNA on an XY graph to visualize the patterns of activation. Pearson correlation coefficients between these two nerve activities were calculated. The data obtained from the manual analyses were subjected to further statistical analyses as described below.
To determine the relationship between BP, heart rate (HR) and ANS activities, 1-minute and 4-hour averages for each dog were calculated on each day of data collection starting at midnight. Pearson correlation coefficients between SGNA and VNA were also calculated within each 4-hour interval. To analyze data from any given individual dog, multiple linear regression with systolic BP as the dependent variable and ANS activities as the independent variables based on 1-minute average data were used. To analyze data from all dogs and the 4-hour average data, a random effects model with dog as the random effect was used with the same dependent and independent variables, plus HR and the Pearson correlation coefficient as additional independent variables. […] A cubic smoothing spline was also used to fit BP versus hour for one dog. Statistical analysis was performed with IBM SPSS Statistics 19 (Armonk, N.Y.) and SAS version 9.3 (SAS Institute Inc., Cary, N.C.).

[1] = test system: left thoracic vagal nerve; test: Ambulatory recording of vagal nerve activity (VNA); conditions: carvedilol 12 mg twice daily for a week or ICI infusion 7 days; immediately before drug 192.96
Protocol: as §1, §2, §3, §4

[2] = test system: rat model of orthostatic hypotension; conditions: no definite beneficial effect shown; cited from earlier work
humans = conditions: doses up to 80 mg orally, no continuous BP monitoring; cited from earlier work

SMILES | iSGNA (integrated stellate ganglion nerve activity) (left stellate ganglion) | BP response following simultaneous termination of sympathovagal firing and postural change (mongrel dogs; listed as ICI) | BP (mongrel dogs) | percentage of hypotensive episodes (mean systolic pressure <100 mmHg in one min) (mongrel dogs) [%] | iVNA (integrated vagal nerve activity) [1] | effect on orthostatic symptoms [2] | effect on BP or heart rate (humans) | BP response following simultaneous termination of sympathovagal firing and postural change (mongrel dogs)
Cc1ccc(OCC(O)C(C)NC(C)C)c2c1CCC2 (stereo not drawn) [ICI-118,551, 3-(isopropylamino)-1-[(7-methyl-4-indanyl)oxy]butan-2-ol] | 281.23 (95% CI: 230.30 to 332.16) mV-s | no change in BP; also recorded: not followed by hypotension | 133.00 (95% CI: 124.85 to 141.14) mmHg | 1.3 | 220.18 (95% CI: 156.46 to 283.90) mV-s | had a tendency of improving orthostatic symptoms | does not alter BP or heart rate | 
COc1ccccc1OCCNCC(O)COc1cccc2[nH]c3ccccc3c12 (stereo not drawn) [carvedilol] | 258.47 (95% CI: 207.20 to 309.75) mV-s |  | 124.8 (95% CI: 116.63 to 132.97) mmHg | 7.8 | 186.68 mV-s |  |  | drop in BP from 100 mmHg to 80 mmHg; also recorded: followed by hypotension
